Laboratory results: ChEMBL document CHEMBL1149222, “Synthesis and in vitro antimycobacterial activity of novel 3-(1H-pyrrol-1-yl)-2-oxazolidinone analogues of PNU-100480” (2004)
≈ marks a conversion by molar mass, not a printed value.

Assays:
Type in all cases: functional
[1] = tested on: Mycobacterium tuberculosis; assay: In vitro anti-mycobacterial activity against streptomycin resistant Mycobacterium tuberculosis ATCC 35820 was determined
[2] = tested on: Mycobacterium tuberculosis; assay: In vitro anti-mycobacterial activity against ethambutol resistant Mycobacterium tuberculosis ATCC 35837 determined by the MTT method
[3] = tested on: Mycobacterium tuberculosis; assay: In vitro anti-mycobacterial activity against streptomycin resistant Mycobacterium tuberculosis ATCC 35820 determined by the MTT method
[4] = tested on: Mycobacterium tuberculosis; assay: In vitro anti-mycobacterial activity against ethambutol resistant Mycobacterium tuberculosis ATCC 35837 was determined
[5] = tested on: Mycobacterium tuberculosis; assay: In vitro anti-mycobacterial activity against pirazynamide resistant Mycobacterium tuberculosis ATCC 35828 determined by the MTT method
[6] = tested on: Mycobacterium tuberculosis; assay: In vitro anti-mycobacterial activity against pirazynamide resistant Mycobacterium tuberculosis ATCC 35828 was determined

Structure (SMILES)	MIC50 [1] [µM]	MIC90 [2] [µM]	MIC90 [3] [µM]	MIC50 [4] [µM]	MIC90 [5] [µM]	MIC50 [6] [µM]
CC(=O)NC[C@H]1CN(c2ccn(-c3cccc(F)c3)c2)C(=O)O1	0.9 (≈ 0.286 µg/mL)	24.9 (≈ 7.9 µg/mL)	> 100	7 (≈ 2.22 µg/mL)	63.9 (≈ 20.3 µg/mL)	18.4 (≈ 5.84 µg/mL)
CC(=O)NC[C@H]1CN(c2ccn(-c3ccccc3)c2)C(=O)O1	5.6 (≈ 1.68 µg/mL)	100 (≈ 29.9 µg/mL)	≥ 100	23.8 (≈ 7.12 µg/mL)	> 100	50.3 (≈ 15.1 µg/mL)
CC(=O)NC[C@H]1CN(c2ccn(N3CCOCC3)c2)C(=O)O1	> 100	–	–	> 100	–	> 100
CC(=O)NC[C@H]1CN(c2ccn(-c3ccccc3F)c2)C(=O)O1	1.1 (≈ 0.349 µg/mL)	23.9 (≈ 7.58 µg/mL)	45 (≈ 14.3 µg/mL)	7 (≈ 2.22 µg/mL)	58.7 (≈ 18.6 µg/mL)	10 (≈ 3.17 µg/mL)
CC(=O)NC[C@H]1CN(c2ccn(-c3ccc(N4CCOCC4)c(F)c3)c2)C(=O)O1	4.9 (≈ 1.97 µg/mL)	–	> 100	63.5 (≈ 25.6 µg/mL)	> 100	> 100
CC(=O)NC[C@H]1CN(c2ccn(-c3ccc(F)cc3)c2)C(=O)O1	0.8 (≈ 0.254 µg/mL)	56.6 (≈ 18 µg/mL)	39.9 (≈ 12.7 µg/mL)	13.5 (≈ 4.28 µg/mL)	73.7 (≈ 23.4 µg/mL)	21.5 (≈ 6.82 µg/mL)
NNC(=O)c1ccncc1 [ISONIAZID]	1.3 (≈ 0.178 µg/mL)	13 (≈ 1.78 µg/mL)	> 100	0.2 (≈ 0.0274 µg/mL)	> 100	0.1 (≈ 0.0137 µg/mL)
CC(=O)NC[C@H]1CN(c2ccc(N3CCSCC3)c(F)c2)C(=O)O1 [SUTEZOLID]	5.6 (≈ 1.98 µg/mL)	0.3 (≈ 0.106 µg/mL)	0.4 (≈ 0.141 µg/mL)	0.06 (≈ 0.0212 µg/mL)	0.7 (≈ 0.247 µg/mL)	0.1 (≈ 0.0353 µg/mL)
